Some test systems named below: DMS 273 small cell lung; LXFL 529 NSCLC; HOP-18 NSCLC; SNB-78 CNS; DMS 114 small cell lung; RXF-631 renal; M19-MEL melanoma; KM20L2 colon; SN12K1 renal; P388/ADR leukemia; P388 leukemia.
What all share (assay): NCI tumour cell line growth inhibition, 48 h

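The compound was tested at five concentrations on cells cultured in 96-well plates, with a 48-hour exposure period. TGI marks complete inhibition of growth.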

For the compound `O=C1c2c(O)cccc2-c2nn(CCNCCO)c3ccc(NCCNCCO)c1c23`, the TGI was determined as 2.54 µM in the test with DMS 273 small cell lung; 1.14 µM with LXFL 529 NSCLC; 5.41 µM in the test with HOP-18 NSCLC; 5.99 µM in the test with SNB-78 CNS; 0.178 µM with DMS 114 small cell lung; 5.54 µM with RXF-631 renal. In addition, the values for the TGI in the test with M19-MEL melanoma and in the test with KM20L2 colon were 1.15 µM and 9.29 µM, respectively.
Take `CN=C(/N=c1\ssc(=NC)n1C)N(C)C`: the TGI in the test with DMS 273 small cell lung, with LXFL 529 NSCLC, with HOP-18 NSCLC, in the test on DMS 114 small cell lung, with RXF-631 renal and in the test with M19-MEL melanoma was more than 100 µM throughout. In the test with KM20L2 colon, this compound yielded a TGI of more than 100 µM.
Take `COc1cccc(N[C@@H]2c3cc4c(cc3C(c3cc(OC)c(O)c(OC)c3)[C@H]3C(=O)OCC32)OCO4)c1` (some centres undefined): the TGI in the test on DMS 273 small cell lung is 2.44 µM; in the test on SN12K1 renal, 9.55 µM; with P388/ADR leukemia it was 0.984 µM; with HOP-18 NSCLC it was 21.7 µM; with SNB-78 CNS, more than 100 µM; with DMS 114 small cell lung it was 4.77 µM. Further, the TGI in the test with P388 leukemia is 0.385 µM; in the test with M19-MEL melanoma, more than 59.7 µM; in the test with KM20L2 colon, more than 29.4 µM.
Turning to `O=C(O)c1ccccc1N=Cc1ccc(N(CCCl)CCCl)cc1`, the TGI with DMS 273 small cell lung, in the test on SN12K1 renal, in the test with P388/ADR leukemia, in the test with HOP-18 NSCLC, in the test on SNB-78 CNS and in the test on P388 leukemia was more than 100 µM in each case. In addition, the TGI in the test on M19-MEL melanoma and in the test with KM20L2 colon was more than 100 µM each time.
For the compound `NCc1cccc(O)c1O`, the TGI in the test with DMS 273 small cell lung, in the test with LXFL 529 NSCLC, in the test with HOP-18 NSCLC, in the test with SNB-78 CNS, in the test with DMS 114 small cell lung and in the test with RXF-631 renal was more than 100 µM each time. The TGI in the test with M19-MEL melanoma and with KM20L2 colon was more than 100 µM throughout.
As to `Cc1ccccc1-c1nc2c(C(=O)NCCN(C)C)cccc2[nH]1`, the TGI in the test with DMS 273 small cell lung is more than 100 µM; in the test with SN12K1 renal, more than 100 µM; in the test with P388/ADR leukemia, more than 100 µM; with HOP-18 NSCLC, 54.8 µM; in the test with SNB-78 CNS it was more than 100 µM; with DMS 114 small cell lung it was more than 100 µM. Also, the TGI in the test with P388 leukemia is 44.3 µM; in the test on KM20L2 colon it was more than 100 µM.
Consider `CC1(C)CC2(CC(C)(C)N1O)NC(=O)OC2=O`, for which the TGI in the test with DMS 273 small cell lung, in the test with SN12K1 renal, in the test on P388/ADR leukemia, with HOP-18 NSCLC, with SNB-78 CNS and in the test with DMS 114 small cell lung was more than 100 µM in each case. The TGI in the test with P388 leukemia, in the test on M19-MEL melanoma and in the test on KM20L2 colon was more than 100 µM each time.
Consider `CN(C)CCCNc1ccc2nnn3c4ccc(O)cc4c(=O)c1c23`, for which the TGI in the test on LXFL 529 NSCLC amounted to 20.1 µM; in the test with HOP-18 NSCLC, 29.1 µM; in the test on SNB-78 CNS, 20.7 µM; in the test on DMS 114 small cell lung, 23.1 µM; in the test with M19-MEL melanoma it was 25.6 µM; in the test with KM20L2 colon, 17.1 µM.
With `COc1cccc(C=O)c1[O-].[O]=[U](=[O])([OH2+])[OH2+]`, the TGI in the test on DMS 273 small cell lung is more than 100 µM; with LXFL 529 NSCLC, more than 100 µM; in the test on HOP-18 NSCLC, 88.9 µM; with SNB-78 CNS it was more than 100 µM; in the test with DMS 114 small cell lung it was more than 100 µM; with M19-MEL melanoma, more than 100 µM. In the test on KM20L2 colon, this compound had a TGI of more than 100 µM.
In the case of `CC1=C2C(=CO[C@H](C)[C@H]2C)C(=O)C(C(=O)O)=C1O`, the TGI worked out at 123 µM in the test with DMS 273 small cell lung; 42 µM in the test on SN12K1 renal; 67.7 µM in the test with P388/ADR leukemia; 57.9 µM with HOP-18 NSCLC; 82.8 µM with SNB-78 CNS; 30 µM with DMS 114 small cell lung. The TGI with P388 leukemia stood at 500 µM; in the test with M19-MEL melanoma, 79.1 µM; in the test with KM20L2 colon, 71.7 µM.

Source of the values: PubChem BioAssay (NCI).
